Reference: patent publication US20240358693A1, “METHODS OF TREATING PAIN” (Aisa Pharma, Inc., priority 2023, published 2024)

Tested on: participants with SSc-RP
Assay: Scleroderma Health Assessment Questionnaire (SHAQ): disability indices and visual analog scales
Format: in vivo, human
Excerpt: The standard, validated, patient reported outcome measures tool for SSc patients, the Scleroderma Health Assessment Questionnaire (SHAQ), will be used to assess the participant qualify of life. Details are attached in the Appendix. The participant quality of life will be scored, and a disability index calculated for each questionnaire completed by the patient at Screening and each in-clinic visit. The absolute change in participant quality of life from baseline to the end of each dosing period will be calculated similar to frequency data as before.
The SHAQ includes a Raynaud's VAS, which will be reported at screening and each in-clinic visit. The absolute change in Raynaud-VAS, assessed by the participants response to the SHAQ question ‘In the past 7 days, how much have your Raynaud's interfered with your daily activities?’ at baseline and the end of each dosing period will be calculated similar to frequency data as before.
The SHAQ is used to calculate a Disability Index to assess the participant qualify of life. The eight categories assessed by the Disability Index are 1) dressing and grooming, 2) arising, 3) eating, 4) walking, 5) hygiene, 6) reach, 7) grip, and 8) common daily activities. For each of these categories, patients report the amount of difficulty they have in performing two or three specific activities.
There are four possible responses for the Disability Index questions: • Without any difficulty=0 • With some difficulty=1 • With much difficulty=2 • Unable to do=3. • The highest score reported by the patient for any component question of the eight categories determines the score for that category. • If a component question is left blank or the response is too ambiguous to assign a score, then the score for that category is determined by the remaining completed question(s). • If all component questions are blank or if more than one answer is given, then follow up with the respondent is required. • If the respondent's mark is between the response columns, then move it to the closest one. If it's directly between the two, move it to the higher one.
Each of the disability items on the SHAQ has a companion aids/devices variable that is used to record what type(s) of assistance, if any, the participant uses for his/her usual activities. These variables (see below) are coded as follows: • 0=No assistance is needed. • 1=A special device is used by the patient in his/her usual activities. • 2=The patient usually needs help from another person. • 3=The patient usually needs BOTH a special device AND help from another person.
The scoring variables and scoring rules permit the computation of two disability indices, the Standard Disability Index and the Alternative Disability Index.
This question results in a new set of category scores that are computed by adjusting the score for each category, if necessary, based on the patient's use of an aid or device or assistance for that category. If either devices and/or help from another person are checked for a category, the score is set to “2”, unless the score is already “3” (i.e., scores of “0” or “1” are increased to “2”). For example, if the highest score for the dressing category is “1”, and the patient says they use a device for dressing, the computed category score would be “2”. The sum of the computed categories scores is then calculated and divided by the number of categories answered. This gives a score in the 0 to 3 range.
The aid and device variables are not used to calculate the alternative disability index; it is calculated by adding the scores for each of the categories and dividing by the number of categories answered. This gives a score in the 0 to 3 range.
The standard, validated, patient reported outcome measures tool for SSc patients, the SHAQ, was collected at the time points specified in the study schedules (FIG. 2 and FIGS. 4A and 4B) to assess the participant's quality of life. The SHAQ included a Raynaud's VAS that will also be reported separately.

[1] = Pooled Cilnidipine 10 mg and Cilnidipine 10 mg + Tadalafil 5 mg (N = 9), sensitivity analysis, Modified ITT, Part A
[2] = Pooled Cilnidipine 20 mg and Cilnidipine 20 mg + Tadalafil 5 mg (N = 7), sensitivity analysis, Modified ITT, Part A
[3] = Pooled Cilnidipine (10 mg or 20 mg) (N = 7)

COCCOC(=O)C1=C(C)NC(C)=C(C(=O)OC/C=C/c2ccccc2)C1c1cccc([N+](=O)[O-])c1 (stereo not shown) [Cilnidipine, cilnidipine] was tested, and the “SHAQ VAS Raynaud's: Percent Change from Baseline, Mean” value [1] was −9.97%, the “SHAQ VAS Raynaud's: Percent Change from Baseline, Median” value [1] was −4.39% and the “SHAQ Standard Disability Index: Baseline, Mean” value [2] was 0.554. The “SHAQ Standard Disability Index: Baseline, Median” value [2] was 0.375, the “SHAQ Standard Disability Index: Change from Baseline, Mean” value [2] was −0.092 and the “SHAQ Standard Disability Index: Change from Baseline, Median” value [2] was 0.000. The “SHAQ Standard Disability Index: Day 12, Mean” value [2] was 0.462, the “SHAQ Standard Disability Index: Day 12, Median” value [2] was 0.250 and the “SHAQ Standard Disability Index: Percent Change from Baseline, Mean” value [2] was −5.99%. The “SHAQ Standard Disability Index: Percent Change from Baseline, Median” value [2] was −33.33%, the “SHAQ VAS Breathing Problems: Baseline, Mean” value [2] was 1.071 and the “SHAQ VAS Breathing Problems: Baseline, Median” value [2] was 0.800. For the same compound, the “SHAQ VAS Breathing Problems: Change from Baseline, Mean” value [2] was 0.171, the “SHAQ VAS Breathing Problems: Change from Baseline, Median” value [2] was 0.000 and the “SHAQ VAS Breathing Problems: Day 12, Mean” value [2] was 1.243. The “SHAQ VAS Breathing Problems: Day 12, Median” value [2] was 0.400, the “SHAQ VAS Breathing Problems: Percent Change from Baseline, Mean” value [2] was 103.99% and the “SHAQ VAS Breathing Problems: Percent Change from Baseline, Median” value [2] was 24.48%. For the same compound, the “SHAQ VAS Finger Ulcers: Baseline, Mean” value [2] was 1.986, the “SHAQ VAS Finger Ulcers: Baseline, Median” value [2] was 0.100 and the “SHAQ VAS Finger Ulcers: Change from Baseline, Mean” value [2] was −0.950. For the same compound, the “SHAQ VAS Finger Ulcers: Change from Baseline, Median” value [2] was −0.050, the “SHAQ VAS Finger Ulcers: Day 12, Mean” value [2] was 1.367 and the “SHAQ VAS Finger Ulcers: Day 12, Median” value [2] was 0.350. For the same compound, the “SHAQ VAS Finger Ulcers: Percent Change from Baseline, Mean” value [2] was −15.69%, the “SHAQ VAS Finger Ulcers: Percent Change from Baseline, Median” value [2] was −48.04% and the “SHAQ VAS Intestinal Problems: Baseline, Mean” value [2] was 0.886. For the same compound, the “SHAQ VAS Intestinal Problems: Baseline, Median” value [2] was 1.000, the “SHAQ VAS Intestinal Problems: Change from Baseline, Mean” value [2] was 0.271 and the “SHAQ VAS Intestinal Problems: Change from Baseline, Median” value [2] was 0.000. For the same compound, the “SHAQ VAS Intestinal Problems: Day 12, Mean” value [2] was 1.157, the “SHAQ VAS Intestinal Problems: Day 12, Median” value [2] was 0.200 and the “SHAQ VAS Intestinal Problems: Percent Change from Baseline, Mean” value [2] was 12.47%. For the same compound, the “SHAQ VAS Intestinal Problems: Percent Change from Baseline, Median” value [2] was 30.00%, the “SHAQ VAS Overall Disease Severity: Baseline, Mean” value [2] was 3.200 and the “SHAQ VAS Overall Disease Severity: Baseline, Median” value [2] was 2.900. The “SHAQ VAS Overall Disease Severity: Change from Baseline, Mean” value [2] was −1.186, the “SHAQ VAS Overall Disease Severity: Change from Baseline, Median” value [2] was −1.500 and the “SHAQ VAS Overall Disease Severity: Day 12, Mean” value [2] was 2.014. The “SHAQ VAS Overall Disease Severity: Day 12, Median” value [2] was 1.200, the “SHAQ VAS Overall Disease Severity: Percent Change from Baseline, Mean” value [2] was −44.99% and the “SHAQ VAS Overall Disease Severity: Percent Change from Baseline, Median” value [2] was −44.74%. For the same compound, the “SHAQ VAS Pain: Baseline, Mean” value [2] was 2.667, the “SHAQ VAS Pain: Baseline, Median” value [2] was 2.550 and the “SHAQ VAS Pain: Change from Baseline, Mean” value [2] was −0.700. For the same compound, the “SHAQ VAS Pain: Change from Baseline, Median” value [2] was −0.650, the “SHAQ VAS Pain: Day 12, Mean” value [2] was 2.000 and the “SHAQ VAS Pain: Day 12, Median” value [2] was 2.100. The “SHAQ VAS Pain: Percent Change from Baseline, Mean” value [2] was −33.40%, the “SHAQ VAS Pain: Percent Change from Baseline, Median” value [2] was −51.06% and the “SHAQ VAS Raynaud's: Baseline, Mean” value [2] was 2.314. For the same compound, the “SHAQ VAS Raynaud's: Baseline, Median” value [2] was 0.900, the “SHAQ VAS Raynaud's: Change from Baseline, Mean” value [2] was −1.014 and the “SHAQ VAS Raynaud's: Change from Baseline, Median” value [2] was −0.300. For the same compound, the “SHAQ VAS Raynaud's: Day 12, Mean” value [2] was 1.300, the “SHAQ VAS Raynaud's: Day 12, Median” value [2] was 0.600 and the “SHAQ VAS Raynaud's: Percent Change from Baseline, Mean” value [2] was −34.71%. For the same compound, the “SHAQ VAS Raynaud's: Percent Change from Baseline, Median” value [2] was −40.67%, the “SHAQ patient reported disease severity, Change from Baseline, Mean” value [3] was −1.214 and the “SHAQ patient reported disease severity, Change from Baseline, Median” value [3] was −1.500. For the same compound, the “SHAQ patient reported disease severity, In-Clinic Visit (Day 12), Mean” value [3] was 1.486.
